The record followed here is patent US12274703B2, “Compositions and methods of treatment for neurological disorders comprising a dementia” (Gliapharm SA, priority 2017, dated 2025).

The structures appear in SMILES notation.

In test [1] the test system is cerebral extracellular lactate. Briefly: In vivo pharmacodynamics - lactate biosensors. The following applies: 100 mg/kg per os; AUC ratio vs vehicle. The arrangement: species or system mouse. On the procedure: Extracellular levels of lactate were monitored in vivo using lactate biosensors (Pinnacle Technology), according to the manufacturer's instructions. Cannulae were surgically implanted in mice cerebral motor cortex areas M1/M2 (coordinates: +1.94 mm (to bregma), lateral −1.4 mm (to mideline), ventral −1.0 mm (to dura)) 5-7 days before administration of the compounds. Drugs were administered per os as previously described, and cerebral levels of extracellular lactate were dynamically recorded for 6 hours. Mice were administered vehicle alone first, followed 3 hours later by vehicle or drug (10 or 100 mg/kg). Area Under the Curve (AUC) quantifying the fluctuations of extracellular lactate concentrations for each of the compound tested was calculated using Graphad Prism and the ratio of AUC after drug over Vehicle administration was calculated. Groups of 8 male mice were used for each condition.
To measure biological effect of lead molecules in vivo in the brain, lactate levels were quantified after administration of the drug by using lactate biosensors implanted in the cortex of freely moving mice.

For another test, the system named is primary astrocytes. Briefly: Intracellular glycogen quantification, Example 2. It counts as cell-based, mouse. Conditions: 10 μM, 3 h (GP-0157: 0.1, 1, 10 μM). On the procedure:
Primary cultures of cerebrocortical astrocytes were obtained from 1 to 2-day-old OF1 mouse pups (Charles River). Briefly, cortices were isolated and minced in small pieces under a dissecting microscope. The cells were incubated for 30 min at 37° C. in a solution containing 20 U/ml papain, 1 mM L-cysteine and 10 kU/ml DNase I. After dissociation, papain activity was stopped by the addition of fetal calf serum (FCS). Single-cell suspension was then obtained by mechanical dissociation, which consisted in cells trituration in a DMEM D7777 medium supplemented with 44 mm NaHCO3, 10 ml/L antibiotic/antimycotic solution and 10% FCS. The cells were seeded at an average density of ˜10,000 cells/cm2 on poly-D-lysine coated 96- or 12-well culture plates, depending on their use, and grown in DMEM D7777 medium supplemented with 44 mm NaHCO3, 10 ml/L antibiotic/antimycotic solution and 10% FCS at 37° C. in a humidified atmosphere containing 5% CO2/95% air. Culture medium was renewed twice a week. Cells were stimulated and harvested between DIV14 and DIV17, when confluence and cell growth were optimal.
Astrocytes grown on 12-well plates were used for intracellular glycogen quantifications. Cells were stimulated with Vehicle (DMSO), with compounds of the invention (10 μM), or with a positive control for 180 min, at 37° C. 5% CO2/95% air in D5030 medium complemented with 5 mM D-glucose and 44 mM sodium bicarbonate (pH 7.2). […] At the end of the stimulation, medium was removed and replaced with 600 μl of 30 mM Tris HCl, and stored at −20° C.
First, the amount of proteins in each sample was quantified to assess whether harvested astrocytes from primary cell cultures yielded enough and equivalent amounts of proteins on each replicates. Proteins were quantified using the micro BCA Protein Assay kit (Thermo Scientific), according to manufacturer's instructions. Next, intracellular glycogen concentrations were quantified using a 250 μl-aliquot of the same stimulated, thawed, and sonicated cell lysate. After an incubation period of 30 min at 90° C. and 400 rpm, 28 μl of a 0.1M acetic acid/sodium acetate buffer (pH 4.6) was added to each lysate aliquots, which were then separated in two. Each split aliquots received either 5 μl of amyloglucosidase or H2O, and incubated for 120 min at 37° C. After centrifugation at 16,000 G for 5 min, 20 μl of supernatant were placed in a 96-well plate, to which 150 μl of a mix containing 0.67 mM ATP, 0.67 mM NADP, 1.8% hexokinase/glucose-6-phosphate dehydrogenase in a 0.1M Tris Buffer-HCl/3.3 mM magnesium (pH 8.1) buffer was added. Fluorescence intensity (340 nm excitation/440 nm emission) was measured using a Safire 2 spectrophotometer. Glucose concentrations were assessed relative to a glucose standard curve, and glycogen concentrations were calculated by subtracting glucose values of samples that had received amyloglucosidase (i.e. that had degraded their glycogen stores) to samples that had not. Intracellular levels of glycogen, which is the main source of glucose storage in the brain, were analyzed in primary astrocytes after treatment with compounds of interest (10 μM, 3 h) (FIG. 5B), and compound GP-0157 (0.1, 1, 10 μM, 3 h) (FIG. 18).

A further test relates to astrocytes. Put plainly: Intracellular glycogen quantification. The format is cell-based, mouse. Conditions: CDC54K hits; 10 μM, 3 h.

With `CC(=O)N1CCc2sc(S(=O)(=O)N3CCN(c4ccccc4C)CC3)cc2C1` [P025-0159], the Cerebral lactate entry in test [1] is listed as “Significant increase”. Moreover, in the test on primary astrocytes, the “Mobilization of intracellular glycogen” value is on record as “significantly enhance”. For the same molecule, the “Glycogen (statistical significance of glycogen degradation)” value with astrocytes is “ns”.

For the molecule `c1ccc2c(c1)CCN(c1ncnc3sccc13)C2` [T0517-8250], the “Mobilization of intracellular glycogen” value with primary astrocytes is given as “significantly enhance”. Moreover, the “Glycogen (statistical significance of glycogen degradation)” value with astrocytes was “ns”. The corresponding values for `Cc1nc2ccc(NS(=O)(=O)c3cccc(F)c3)cc2s1` [T6937001] are “significantly enhance” and “ns”.

Turning to `CCc1nc(-c2csc(S(=O)(=O)NCc3ccc4c(c3)OCO4)c2)no1` [L287-0468], in the test with primary astrocytes, the “Mobilization of intracellular glycogen” value is given as “significantly enhance”.

As to `CCn1nccc1-c1csc(S(=O)(=O)Nc2ccc(Cl)cc2F)c1` [L924-1031], the “Mobilization of intracellular glycogen” value in the test with primary astrocytes is “significantly enhance”. With `Cc1ccccc1NC(=O)C1CCCN(c2ncnc3oc(C)c(C)c23)C1` (stereo not shown) [F228-0422], the “Mobilization of intracellular glycogen” value in the test with primary astrocytes is “significantly enhance”. In the case of `O=S(=O)(Nc1cc(F)cc(F)c1)c1ccc2ccccc2c1` [T5884038], the “Mobilization of intracellular glycogen” value in the test on primary astrocytes was “significantly enhance”. Turning to `COc1cc(C)c(Cl)cc1S(=O)(=O)NCc1ccncc1` [T5580243], the Cerebral lactate entry in test [1] was “Significant increase”. For the same molecule, the “Glycogen (statistical significance of glycogen degradation)” value in the test on astrocytes is “ns”. For the molecule `O=C1CCCN1c1ccc(S(=O)(=O)Nc2cccc(/C=C/c3ccccn3)c2)cc1` [T5644989], the “Mobilization of intracellular glycogen” value with primary astrocytes is listed as “significantly enhance”.

Regarding `COc1ccc(Nc2nc(N3CCOCC3)c3ccccc3n2)cc1.Cl` [T0508-5190], the “Mobilization of intracellular glycogen” value in the test on primary astrocytes was “significantly enhance”. Still for that read-out and setting: under `COc1ccccc1[N+]1=C2CCCCCN2C(O)(c2ccc(C)cc2)C1` (stereo not shown) [K404-0834] stands “significantly enhance”. Take `N#Cc1ccc(C(=O)N2CCC(Nc3ncnc4c3CCC4)C2)cc1` (stereo not shown) [T636-2387]: the Cerebral lactate result in test [1] is given as “Significant increase”. Besides, the “Mobilization of intracellular glycogen” value in the test with primary astrocytes is “significantly enhance”. The “Glycogen (statistical significance of glycogen degradation)” value with astrocytes was “ns”.
